According to PMC11345766, “Computational Design of Pore-Forming Peptides with Potent Antimicrobial and Anticancer Activities” (Journal of Medicinal Chemistry, 2024):
Ends that are not written are not given here.

How the values were obtained:
HCT-15 = experiment: cells; assay type: cell-based, human; conditions: 72 h
Method: (§1) The CellTiter-Glo luminescent cell viability assay examining the impact of peptides on 22 different human cell lines was purchased from Reaction Biology Europe GmbH (Germany). Cells were cultured in different media (Table S1), seeded into a flat-bottom 96-well plate, and incubated at 37 °C. After overnight incubation, test compounds were added with 1% PBS/0.3% Tween 20 and the reference compound bortezomib was added with 0.1% DMSO. Negative controls were solvents alone, and positive control was 10 μM staurosporine. After 72 h of incubation at 37 °C, 5 or 10% CO2 (dependent on the medium), and 1 h equilibration at room temperature, well plates were treated with CellTiter-Glo reagent (Promega) for an hour and luminescence was measured using a luminometer.
(§2) Table S1. In vitro activity against 22 different human cancer cell lines.
(§3) Sr. Cancer Activity (in M)
(§4) no. Cell line type Culture medium
(§5) The effect of investigated compounds on the proliferation of 22 different human cell lines is
(§6) Twenty of these 22 cell lines represent specific cancer types and 2 were non-cancerous. Peptide
(§7) Anticancer drug bortezomib was used as the […]

MDA MB 435 = experiment: cells; assay type: cell-based, human; conditions: 72 h
Method: as §1, §2, §3, §4, §5, §6, §7

RPMI 8226 = experiment: cells; assay type: cell-based, human; conditions: 72 h
Method: as §1, §2, §3, §4, §5, §6, §7

OVCAR-3 = experiment: cells; assay type: cell-based, human; conditions: 72 h
Method: as §1, §2, §3, §4, §5, §6, §7

[1] = single intraperitoneal dose at 10 times the MIC
Method: Neutropenic mice were infected intramuscularly (in the right thigh) with 10^6 cells per mL of Gram-negative A. baumannii (ATCC 19606).
(a) Schematic of the deep thigh infection model in which bacteria are injected intramuscularly at day 4 and peptides are administered intraperitoneally also at day 4 to assess their anti-infective activity. Mice were euthanized 4 days postinfection (day 8). Each group consisted of six mice (n = 6), and the bacterial loads used to infect the mice derived from three different inocula. […] Polymyxin B (0.006 mg/kg) and levofloxacin (0.014 mg/kg) were used as the reference antibiotics. Statistical significance was done using one-way ANOVA followed by Dunnett’s test. Violin plots represent the median, upper quartile, and lower quartile. (c) Mouse weight was monitored to exclude possible toxic effects of the peptides.
Six-week-old female CD-1 mice (obtained from Charles River; stock number 18679700-022) underwent neutropenia induction via two intraperitoneal doses of cyclophosphamide (150 mg kg^–^1) administered with a 72 h interval. One day later, the mice received an intramuscular injection containing A. baumannii ATCC 19606 (10^6 CFU mL^–1) in the right thigh. Bacteria were cultured in LB broth, washed twice with PBS (pH 7.4), and resuspended to the desired concentration. […] Polymyxin B (0.006 mg/kg) and levofloxacin (0.014 mg/kg) were used as the reference antibiotics. Prior to each injection, mice were anesthetized with isoflurane and their respiratory rate and pedal reflexes were monitored. Subsequently, we observed the infection establishment and euthanized the mice. The infected area was excised 4 days postinfection (i.e., 8 days after the beginning of the experiment), homogenized using a bead beater for 20 min (25 Hz), and 10-fold serially diluted for CFU quantification on MacConkey agar plates. Each experimental group comprised three mice. All experiments were conducted blindly, and no animals were excluded from the analysis. Statistical significance was assessed using one-way ANOVA followed by Dunnett’s test on log10-transformed data to mitigate outlier effects; p values are reported for each group, with all groups compared to the untreated control group.

[2] = system: A. baumannii (NCTC 13301); experiment: Murine excisional dorsal wound infection model; assay type: in vivo, mouse; conditions: for Survival: day 3 postinfection
Method: To investigate wound-healing applications, two peptides (LP1 and LP18) were tested in a murine wound infection model.[57] Immunosuppressed mice were infected with 5 × 10^4 cells per mL of A. baumannii (NCTC 13301) at the excised dorsal wound. The peptides at 1000 times the MICs (∼10 mg/kg) were applied directly to the wound by puncturing the dressing with a syringe once a day for 7 days. After removal of the dressing, necrosis of the epidermal tissue at the wound edges and wound expansion were observed. These conditions were reduced in the LP1-treated group, followed by the LP18-treated, PBS-treated, and untreated groups (Figure S6a,b). Contractile wound healing appeared to be higher in the LP1-treated group compared to the other groups. After 20 days, LP1-treated wounds were either completely closed or had less than 10 mm^2 of overlying serocellular crust, whereas the other wounds had larger and more inflamed serocellular crusts.
Eight-to-ten-week-old female Balb/c mice (obtained from Envigo, Netherlands) were subjected to immunosuppression induction by two intraperitoneal doses of 150 and 100 mg/kg cyclophosphamide on days −4 and −1, respectively, before wounding. On day 0 of wounding, mice were anesthetized with isoflurane and the dorsal region was shaved and scrubbed with iodine solution. A full-thickness skin defect was created over the thoracic spine using a 6 mm disposable skin biopsy punch (KAI Industries Co., Ltd., Japan). Infection was established by applying 25 μL of A. baumannii NCTC 13301 (5 × 10^4 CFU/mL) applied directly to the wound and allowed to absorb for 2 min. Wound was covered with a transparent sterile dressing (Tegaderm, Deutschland GmbH, Germany) and secured with tissue adhesive (Surgibond, SMI AG, Belgium). Afterward, mice received an intramuscular injection of buprenorphine (0.05 mg/kg). […] From 10^–3, 10^–5, and 10^–7 dilutions, 100 μL of the sample was collected three times, incubated on MacConkey agar plates (Trios, Czech Republic), and analyzed for viable cell counts. […]

In the case of “H-HHHHLKKILKKLFQFINQLDNQLQDIHHHH-OH [LP40]”, the IC50 (HCT-15) is reported as 7.1 µM, the IC50 (MDA MB 435) is reported as 190 µM and the IC50 (RPMI 8226) is reported as 5.6 µM. It also gave an IC50 (OVCAR-3) of 9 µM.
For “KKKKLKKILKKLFQFINQLDNQLQDIKKKK-NH2 [LP18]”, the “Change in mouse weight” value [1] was “no significant change in mouse weight” and the Survival [2] was 100%.
For “KKKKLKKILKKLFQFINQLDNQLQDIKQNK-NH2 [LP1]”, the “Change in mouse weight” value [1] was “no significant change in mouse weight”, the IC50 (HCT-15) was 4.7 µM and the IC50 (MDA MB 435) was 1.4 µM. It also gave an IC50 (RPMI 8226) of 4.4 µM, an IC50 (OVCAR-3) of 4.9 µM and a Survival [2] of 100%. The “Overlying serocellular crust of wound” value ([2]; topical, 1000 times the MIC (∼10 mg/kg) once a day for 7 days, after 20 days) was “less than 10 mm^2”.
